{"source": "patent US7709497B2", "about": "“Pyrazolo[3,4-b]pyridine compound, and its use as a PDE4 inhibitor” (Glaxo Group Limited, priority 2004, dated 2010)", "key": {"[1]": {"biological_target": "T1, PDE4B (human recombinant) (Homo sapiens, UniProt Q07343)", "T1 construct": "made in house; host or cells: Saccharomyces cerevisiae strain GL62 (PDE-deficient yeast)", "T1 sequence (Q07343 1-564 isoform Q07343-2)": "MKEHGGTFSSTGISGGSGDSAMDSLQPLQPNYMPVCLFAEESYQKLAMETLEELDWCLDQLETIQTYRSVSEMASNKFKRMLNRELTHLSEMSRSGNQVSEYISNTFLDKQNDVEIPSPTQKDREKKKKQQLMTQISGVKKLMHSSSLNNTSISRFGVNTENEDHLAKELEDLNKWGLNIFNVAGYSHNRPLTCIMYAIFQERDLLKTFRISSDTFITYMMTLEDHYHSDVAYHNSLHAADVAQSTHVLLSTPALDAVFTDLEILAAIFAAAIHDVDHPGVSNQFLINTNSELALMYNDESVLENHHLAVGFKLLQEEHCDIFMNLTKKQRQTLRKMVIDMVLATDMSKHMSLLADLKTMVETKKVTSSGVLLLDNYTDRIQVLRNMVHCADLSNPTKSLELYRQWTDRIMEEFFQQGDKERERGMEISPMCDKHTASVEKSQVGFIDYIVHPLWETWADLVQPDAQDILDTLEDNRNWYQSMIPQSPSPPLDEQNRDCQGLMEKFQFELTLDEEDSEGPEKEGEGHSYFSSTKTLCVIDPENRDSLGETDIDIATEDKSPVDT", "assay": "PDE4B inhibition, IMAP Fluorescence Polarisation (FP) assay", "assay_type": "biochemical", "conditions": "n = 2; accuracy ±about 0.5 log unit; read-out: PDE4B pIC50 (FP assay, mean value) (converted)", "text": "Human recombinant PDE4B, in particular the 2B splice variant thereof (HSPDE4B2B), is disclosed in WO 94/20079 and also M. M. McLaughlin et al., “A low Km, rolipram-sensitive, cAMP-specific phosphodiesterase from human brain: cloning and expression of cDNA, biochemical characterisation of recombinant protein, and tissue distribution of mRNA”, J. Biol. Chem., 1993, 268, 6470-6476. […]\nThe ability of compounds to inhibit catalytic activity at PDE4B (human recombinant) or PDE4D (human recombinant) can optionally be determined by IMAP Fluorescence Polarisation (FP) assay (IMAP Explorer kit, available from Molecular Devices Corporation, Sunnydale, Calif., USA; Molecular Devices code: R8062) in a 384-well format.\nThe IMAP FP assay is able to measure PDE activity in an homogenous, non-radioactive assay format. […] Binding of Fl-AMP product to the beads (coated with the immobilised trivalent cations) slows the rotation of the bound Fl-AMP and leads to an increase in the fluorescence polarisation ratio of parallel to perpendicular light. […]\nBiological Data obtained for Example 1 and/or Example 1A (i.e. the compound of formula (I)) (PDE4B and PDE4D inhibitory activities, usually as an average of more than one reading) are as follows, based on current measurements only, and using the above or similar or analogous assay methods. […]"}, "[2]": {"test_system": "TNF-α (TNF-alpha) production in Human Whole Blood", "assay": "Inhibition of TNF-α production in Human Whole Blood", "assay_type": "cell-based", "conditions": "LPS-stimulated, n=6, read-out: Inhibition of TNF-α production in Human Whole Blood pIC50 (converted)", "experimental": "This is an optional supplementary test, e.g. for potentially orally-administrable PDE4 inhibitors. Also, as the assay measures the effect of PDE4 inhibitors after loss by protein binding, it might also be relevant to externally-topically-administrable PDE4 inhibitors as protein-binding-loss of compound is possible during transport through the skin.\nTest compounds are prepared as a ca. 10 mM stock solution in DMSO and a dilution series prepared in DMSO with 8 successive 3-fold dilutions, either directly from the 10 mM stock solution or from a more dilute solution in DMSO. The compound is added to assay plates using a Biomek Fx liquid handling robot.\nHeparinised blood drawn from normal volunteers is dispensed (ca. 100 μl=ca. 100 ul) into microtitre plate wells containing ca. 0.5 or ca. 1.0 μl (ul, microliters) of an appropriately diluted test compound solution. […] Plasma TNFα content is determined by electrochemiluminescence assay using the IGEN technology (see below) or by enzyme linked immunosorbant assay (ELISA) (see below).\nCa. […] 50 μl (ul) of streptavidin/biotinylated anti-TNF-α antibody mix, ca. 25 μl ruthenium tagged anti-TNF-α monoclonal and ca. 100 μl PBS containing 0.1% bovine serum albumin are added to each well and the plates are sealed and shaken for ca. 2 hours before being read on an IGEN instrument. […]"}}, "data": [{"smiles": "CCn1ncc2c(NC3CCN(C(N)=O)CC3)c(C(=O)NCc3ccc(C)c(C)c3)cnc21", "note": "[compound of formula (I), 4-{[1-(aminocarbonyl)-4-piperidinyl]amino}-N-[(3,4-dimethylphenyl)methyl]-1-ethyl-1H-pyrazolo[3,4-b]pyridine-5-carboxamide]", "values": [{"measurement": "IC50", "setting": "[1]", "result": 0.676, "unit": "nM"}, {"measurement": "IC50", "setting": "[2]", "result": 7.41, "unit": "nM"}]}]}
